The source of these data is ChEMBL document CHEMBL1201862, “PubChem BioAssay data set” (2004).

Test systems include TK-10; HCC 2998; EKVX; OVCAR-4; CAKI-1; SF-295; UACC-62; MOLT-4; HCT-15; NCI/ADR-RES; SR; ACHN; NCI-H23; A549; OVCAR-8; Hs-578T; NCI-H226; U-251; MDA-N; NCI-H522.
Common to all, as to experiment: NCI tumour cell line growth inhibition, 48 h

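Dose response: 5 concentrations. Exposure: 48 h. Format: 96-well plates. Endpoint: linear interpolation; highest concentration if not reached. GI50: concentration for 50% inhibition of growth.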 The source made the active and inactive calls. No stated cut-off is given here; in the data, active = GI50 up to about 1.1 µM and inactive = higher. Some results are limits rather than exact numbers.

Consider `Brc1ccc(-c2ccc(-c3ccc(-c4ccc(Br)s4)s3)s2)s1`, for which the GI50 in the experiment on TK-10, in the experiment on HCC 2998, in the experiment with EKVX, in the experiment with OVCAR-4, in the experiment with CAKI-1 and with SF-295 was > 100 µM (inactive) in each case. Further, the GI50 is > 100 µM (inactive) with UACC-62; > 100 µM (inactive) in the experiment with MOLT-4; over 100 µM in the experiment with HCT-15; > 100 µM (inactive) with NCI/ADR-RES; > 100 µM (inactive) in the experiment with SR; > 100 µM (inactive) with ACHN. For the same molecule, the GI50 in the experiment on NCI-H23 was > 100 µM (inactive); in the experiment with A549 it was > 100 µM (inactive); in the experiment with OVCAR-8, > 100 µM (inactive); in the experiment on Hs-578T, > 100 µM (inactive); in the experiment on NCI-H226, 54.1 µM (inactive); in the experiment on U-251, > 100 µM (inactive). Further, the GI50 in the experiment on MDA-N was > 100 µM (inactive).

Take `C/C=C1\CN(C(=O)OC(C)(C)C)C1C(=O)OC(C)(C)C` (stereo not drawn): the GI50 was > 100 µM (inactive) in the experiment on TK-10; > 100 µM (inactive) in the experiment with HCC 2998; > 100 µM (inactive) in the experiment on EKVX; 53.6 µM (inactive) with OVCAR-4; > 100 µM (inactive) in the experiment on CAKI-1; > 100 µM (inactive) with SF-295. Moreover, the GI50 in the experiment on UACC-62 was > 100 µM (inactive); with MOLT-4, > 100 µM (inactive); in the experiment on HCT-15 it was over 100 µM; in the experiment with NCI/ADR-RES it was > 100 µM (inactive); in the experiment on SR, > 100 µM (inactive); with ACHN, > 100 µM (inactive). Besides, the GI50 is > 100 µM (inactive) with NCI-H23; > 100 µM (inactive) in the experiment with A549; > 100 µM (inactive) in the experiment on OVCAR-8; 27.7 µM (inactive) with Hs-578T; > 100 µM (inactive) with MDA-N.

As for `Cc1ccccc1N/C(N)=N/C#N`, the GI50 with TK-10, in the experiment on HCC 2998, in the experiment with EKVX, in the experiment on OVCAR-4, in the experiment with CAKI-1 and in the experiment with UACC-62 was > 100 µM (inactive) throughout. Besides, the GI50 in the experiment on MOLT-4 was > 100 µM (inactive); with HCT-15, over 100 µM; in the experiment on NCI/ADR-RES it was > 100 µM (inactive); in the experiment on SR it was > 100 µM (inactive); in the experiment with ACHN, > 100 µM (inactive); in the experiment with NCI-H23 it was > 100 µM (inactive). In addition, the GI50 with A549, with OVCAR-8, in the experiment with Hs-578T, in the experiment with U-251 and with MDA-N was > 100 µM (inactive) each time.

As to `CCNC(=O)Cc1nc2c(O)ncnc2n1C1OC(CO)C(O)C1O` (stereo not drawn), the GI50 with TK-10, in the experiment on HCC 2998, in the experiment on EKVX, with OVCAR-4, with CAKI-1 and in the experiment on SF-295 was > 100 µM (inactive) throughout. Further, the GI50 was > 100 µM (inactive) in the experiment on UACC-62; > 100 µM (inactive) with NCI-H522; > 100 µM (inactive) in the experiment with MOLT-4; over 100 µM in the experiment with HCT-15; > 100 µM (inactive) in the experiment on NCI/ADR-RES; > 100 µM (inactive) in the experiment on ACHN. Further, the GI50 in the experiment on NCI-H23, with A549, with OVCAR-8, in the experiment with Hs-578T, in the experiment on NCI-H226 and with U-251 was > 100 µM (inactive) throughout. Also, the GI50 in the experiment with MDA-N was > 100 µM (inactive).

For `CN(C)c1ccc(-c2c(C#N)c(O)n(NS(=O)(=O)c3ccccc3)c(=O)c2C#N)cc1`, the GI50 in the experiment on TK-10, in the experiment on HCC 2998, in the experiment with EKVX, in the experiment on OVCAR-4, with CAKI-1 and with UACC-62 was > 100 µM (inactive) throughout. The GI50 was > 100 µM (inactive) in the experiment on NCI-H522; > 100 µM (inactive) with MOLT-4; over 100 µM in the experiment on HCT-15; > 100 µM (inactive) in the experiment with NCI/ADR-RES; > 100 µM (inactive) in the experiment on ACHN; > 100 µM (inactive) in the experiment with A549. Besides, the GI50 with OVCAR-8, in the experiment with Hs-578T, in the experiment on NCI-H226, with U-251 and in the experiment with MDA-N was > 100 µM (inactive) in each case.

For the molecule `COc1cc2oc(=O)cc(C)c2c(OC)c1OC(C)=O`, the GI50 with TK-10, in the experiment with EKVX, in the experiment on OVCAR-4, in the experiment on SF-295, in the experiment with UACC-62 and in the experiment with MOLT-4 was > 100 µM (inactive) in each case. The GI50 is over 100 µM in the experiment on HCT-15; > 100 µM (inactive) with NCI/ADR-RES; > 100 µM (inactive) with SR; > 100 µM (inactive) in the experiment on ACHN; > 100 µM (inactive) in the experiment with NCI-H23; > 100 µM (inactive) in the experiment with A549. Further, the GI50 with OVCAR-8, in the experiment with Hs-578T, in the experiment on NCI-H226, in the experiment on U-251 and in the experiment with MDA-N was > 100 µM (inactive) throughout.

Regarding `CCOC(=O)C1(Cc2ccccc2)Cc2cc3c(cc2C1=O)CCC3` (stereo not drawn), the GI50 in the experiment with TK-10, in the experiment on HCC 2998, with EKVX, with OVCAR-4, with SF-295 and with UACC-62 was > 100 µM (inactive) throughout. Besides, the GI50 is > 100 µM (inactive) in the experiment with MOLT-4; over 100 µM in the experiment with HCT-15; > 100 µM (inactive) in the experiment with NCI/ADR-RES; > 100 µM (inactive) in the experiment with SR; > 100 µM (inactive) in the experiment on ACHN; > 100 µM (inactive) in the experiment on NCI-H23. The GI50 with A549, in the experiment with OVCAR-8, in the experiment on Hs-578T, in the experiment with NCI-H226, with U-251 and in the experiment with MDA-N was > 100 µM (inactive) each time.

As to `O=C(O)Cc1ccc2nc(COC(=O)c3ccccc3)sc2c1`, the GI50 in the experiment on TK-10, with HCC 2998, with EKVX, in the experiment with OVCAR-4, in the experiment on CAKI-1 and in the experiment with SF-295 was > 100 µM (inactive) in each case. Also, the GI50 with UACC-62 was > 100 µM (inactive); in the experiment on NCI-H522 it was > 100 µM (inactive); in the experiment on HCT-15, over 100 µM; in the experiment with NCI/ADR-RES, > 100 µM (inactive); in the experiment with SR it was > 100 µM (inactive); with ACHN, > 100 µM (inactive). The GI50 in the experiment with NCI-H23, with A549, in the experiment with OVCAR-8, with Hs-578T, in the experiment with U-251 and in the experiment with MDA-N was > 100 µM (inactive) throughout.

Regarding `N#CC1Nc2ccccc2[C@@H](O)C1O` (stereo partly drawn), the GI50 in the experiment on TK-10, in the experiment on HCC 2998, in the experiment with EKVX, with OVCAR-4, in the experiment with CAKI-1 and in the experiment on SF-295 was > 100 µM (inactive) in each case. Also, the GI50 in the experiment on UACC-62 is > 100 µM (inactive); in the experiment with MOLT-4 it was > 100 µM (inactive); in the experiment on HCT-15, over 100 µM; in the experiment with NCI/ADR-RES, > 100 µM (inactive); in the experiment with SR it was > 100 µM (inactive); with ACHN, > 100 µM (inactive). The GI50 in the experiment with NCI-H23, with A549, in the experiment on OVCAR-8, with Hs-578T, in the experiment with U-251 and in the experiment with MDA-N was > 100 µM (inactive) throughout.

For `Clc1ccc2c(NCCNc3ccnc4cc(Cl)ccc34)ccnc2c1`, the GI50 in the experiment with TK-10 was 17.9 µM (inactive); in the experiment on HCC 2998 it was 15.2 µM (inactive); with EKVX it was 19.2 µM (inactive); with OVCAR-4, 20 µM (inactive); in the experiment on CAKI-1 it was 20.2 µM (inactive); in the experiment on SF-295, 13.3 µM (inactive). Also, the GI50 in the experiment on UACC-62 is 18.1 µM (inactive); with NCI-H522, 18.3 µM (inactive); with MOLT-4, 17.4 µM (inactive); with HCT-15 it was 15.6 µM; with NCI/ADR-RES, 30.8 µM (inactive); in the experiment with ACHN, 17.8 µM (inactive). Moreover, the GI50 with NCI-H23 is 17.1 µM (inactive); in the experiment with A549 it was 18.5 µM (inactive); in the experiment on OVCAR-8, 19.7 µM (inactive); in the experiment on Hs-578T, 31.9 µM (inactive); in the experiment with NCI-H226, 37.9 µM (inactive); in the experiment with U-251, 17.9 µM (inactive). For the same molecule, in the experiment on MDA-N, the GI50 is 17.1 µM (inactive).

On to `C/C=C1/C[C@@H](C)[C@@](C)(O)C(=O)OCC2=CC[N+]3([O-])CC[C@@H](OC1=O)[C@@H]23` (stereo partly drawn) [SENECIONINE N-OXIDE], for which the GI50 in the experiment on TK-10, in the experiment with HCC 2998, in the experiment with EKVX, with OVCAR-4, in the experiment on CAKI-1 and with SF-295 was > 100 µM (inactive) throughout. Moreover, the GI50 is > 100 µM (inactive) in the experiment with UACC-62; > 100 µM (inactive) in the experiment with NCI-H522; > 100 µM (inactive) in the experiment with MOLT-4; over 100 µM in the experiment on HCT-15; > 100 µM (inactive) with NCI/ADR-RES; > 100 µM (inactive) in the experiment with ACHN. Also, the GI50 with NCI-H23, with A549, in the experiment with OVCAR-8, in the experiment with Hs-578T, in the experiment on NCI-H226 and with U-251 was > 100 µM (inactive) in each case. The GI50 in the experiment with MDA-N is > 100 µM (inactive).
